ChEMBL document CHEMBL1201862, “PubChem BioAssay data set” (2004)
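A five-concentration, 48-hour dose response in 96-well plates underlies each endpoint, interpolated linearly between surrounding concentrations. GI50 = concentration required for 50% inhibition of growth.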 Activity calls are given as the source filed them. Rule as the data show it: active = GI50 up to about 1.1 µM and inactive = higher.

Legend:
Test in all cases: NCI-60 cell line screen, 48 h
A498 = tested on: A498
A549 = tested on: A549
ACHN = tested on: ACHN
COLO 205 = tested on: COLO 205
EKVX = tested on: EKVX
HCC 2998 = tested on: HCC 2998
HL-60 = tested on: HL-60
LOX IMVI = tested on: LOX IMVI
MOLT-4 = tested on: MOLT-4
Malme-3M = tested on: Malme-3M
NCI-H23 = tested on: NCI-H23
NCI-H522 = tested on: NCI-H522
OVCAR-5 = tested on: OVCAR-5
OVCAR-8 = tested on: OVCAR-8
RPMI-8226 = tested on: RPMI-8226
SK-MEL-2 = tested on: SK-MEL-2
SN12C = tested on: SN12C
SNB-75 = tested on: SNB-75
TK-10 = tested on: TK-10
UO-31 = tested on: UO-31

SMILES	GI50 (A498)	GI50 (A549)	GI50 (ACHN)	GI50 (COLO 205)	GI50 (EKVX)	GI50 (HCC 2998)	GI50 (HL-60)	GI50 (LOX IMVI)	GI50 (MOLT-4)	GI50 (Malme-3M)	GI50 (NCI-H23)	GI50 (NCI-H522)	GI50 (OVCAR-5)	GI50 (OVCAR-8)	GI50 (RPMI-8226)	GI50 (SK-MEL-2)	GI50 (SN12C)	GI50 (SNB-75)	GI50 (TK-10)	GI50 (UO-31)
CC(=O)NNc1nc(C)c(C(/C=C/c2ccc(Cl)cc2)=N\NS(=O)(=O)c2ccc(C)cc2)s1	> 100 µM (inactive)	> 100 µM (inactive)	> 100 µM (inactive)	> 100 µM (inactive)	> 100 µM (inactive)	> 100 µM (inactive)	> 100 µM (inactive)	> 100 µM (inactive)	> 100 µM (inactive)	> 100 µM (inactive)	> 100 µM (inactive)	> 100 µM (inactive)	> 100 µM (inactive)	> 100 µM (inactive)	> 100 µM (inactive)	> 100 µM (inactive)	> 100 µM (inactive)	> 100 µM (inactive)	> 100 µM (inactive)	> 100 µM (inactive)
Cc1ccccc1NC(=O)c1nc(S)nc(N)c1-c1ccccc1C	> 100 µM (inactive)	> 100 µM (inactive)	> 100 µM (inactive)	> 100 µM (inactive)	> 100 µM (inactive)	> 100 µM (inactive)	> 100 µM (inactive)	> 100 µM (inactive)	> 100 µM (inactive)	> 100 µM (inactive)	> 100 µM (inactive)	> 100 µM (inactive)	> 100 µM (inactive)	> 100 µM (inactive)	> 100 µM (inactive)	> 100 µM (inactive)	> 100 µM (inactive)	1.74 µM (inactive)	> 100 µM (inactive)	> 100 µM (inactive)
O=[N+]([O-])c1ccc(C(Cl)C(Cl)c2ccc(C(Cl)C(Cl)c3ccc([N+](=O)[O-])cc3[N+](=O)[O-])cc2)c([N+](=O)[O-])c1 (stereo not given)	2.9 µM (inactive)	1.63 µM (inactive)	2.05 µM (inactive)	1 µM (active)	2.13 µM (inactive)	1.96 µM (inactive)	1.93 µM (inactive)	1.36 µM (inactive)	1.61 µM (inactive)	1.27 µM (inactive)	1.52 µM (inactive)	1.14 µM (inactive)	1.86 µM (inactive)	0.912 µM (active)	0.8 µM (active)	1.42 µM (inactive)	1.95 µM (inactive)	8.02 µM (inactive)	5.79 µM (inactive)	2.17 µM (inactive)
CCCCCCCCCCCCOCCCOP(=O)([O-])OCC[N+](C)(C)C	30 µM (inactive)	64 µM (inactive)	30.6 µM (inactive)	6.75 µM (inactive)	99.1 µM (inactive)	7.4 µM (inactive)	7.21 µM (inactive)	32.2 µM (inactive)	20.2 µM (inactive)	64.7 µM (inactive)	67.6 µM (inactive)	22.7 µM (inactive)	21.1 µM (inactive)	47.8 µM (inactive)	9.08 µM (inactive)	43.5 µM (inactive)	28.5 µM (inactive)	24.9 µM (inactive)	3.4 µM (inactive)	49.4 µM (inactive)
CC(=O)OCCOCn1cnc2c(Cl)nc(Cl)nc21	32.2 µM (inactive)	> 10 µM (inactive)	16.5 µM (inactive)	18.6 µM (inactive)	2.84 µM (inactive)	12.2 µM (inactive)	2.65 µM (inactive)	4.3 µM (inactive)	19.2 µM (inactive)	15.8 µM (inactive)	18.7 µM (inactive)	2.05 µM (inactive)	19.1 µM (inactive)	20.8 µM (inactive)	5.97 µM (inactive)	22.3 µM (inactive)	18.5 µM (inactive)	21.5 µM (inactive)	39.4 µM (inactive)	21.2 µM (inactive)
